Data as given in ChEMBL document CHEMBL3734705, “Synthesis and in vitro cytotoxicity of novel C-12 substituted-14-deoxy-andrographolide derivatives as potent anti-cancer agents” (2015).

Experiments:
Malme-3M [1] = test: Cytotoxicity against human MALME-3M cells assessed as growth level at 10 uM after 48 hrs by SRB assay; format: functional
KM12 = test: Cytotoxicity against human KM12 cells assessed as growth inhibition at 10 uM after 48 hrs by SRB assay; format: functional; settings: KM12, 48 h, read-out: GI
[2] = Cytotoxicity against human OVCAR3 cells assessed as growth level at 10 uM after 48 hrs by SRB assay; format: functional, OVCAR-3
[3] = Cytotoxicity against human HCC2998 cells assessed as growth level at 10 uM after 48 hrs by SRB assay; format: functional, HCC 2998
NCI-H23 = test: Cytotoxicity against human NCI-H23 cells assessed as growth level at 10 uM after 48 hrs by SRB assay; format: functional
[4] = Cytotoxicity against human HOP62 cells assessed as growth inhibition at 10 uM after 48 hrs by SRB assay; format: functional; settings: HOP-62, 48 h, read-out: GI
[5] = Cytotoxicity against human UO31 cells assessed as growth inhibition at 10 uM after 48 hrs by SRB assay; format: functional; settings: UO-31, 48 h, read-out: GI
[6] = Cytotoxicity against human SF295 cells assessed as growth level at 10 uM after 48 hrs by SRB assay; format: functional, SF-295
[7] = Cytotoxicity against human OVCAR4 cells assessed as growth inhibition at 10 uM after 48 hrs by SRB assay; format: functional; settings: OVCAR-4, 48 h, read-out: GI
[8] = Cytotoxicity against human Caki1 cells assessed as growth level at 10 uM after 48 hrs by SRB assay; format: functional, CAKI-1
[9] = Cytotoxicity against human UACC62 cells assessed as growth inhibition at 10 uM after 48 hrs by SRB assay; format: functional; settings: UACC-62, 48 h, read-out: GI
NCI-H522 = test: Cytotoxicity against human NCI-H522 cells assessed as growth inhibition at 10 uM after 48 hrs by SRB assay; format: functional; settings: NCI-H522, 48 h, read-out: GI
[10] = Cytotoxicity against human SF295 cells assessed as growth inhibition at 10 uM after 48 hrs by SRB assay; format: functional; settings: SF-295, 48 h, read-out: GI
SR [11] = test: Cytotoxicity against human SR cells assessed as growth level at 10 uM after 48 hrs by SRB assay; format: functional
[12] = Cytotoxicity against human UACC62 cells assessed as growth level at 10 uM after 48 hrs by SRB assay; format: functional, UACC-62
A498 [13] = test: Cytotoxicity against human A498 cells assessed as growth level at 10 uM after 48 hrs by SRB assay; format: functional
SR [14] = test: Cytotoxicity against human SR cells assessed as growth inhibition at 10 uM after 48 hrs by SRB assay; format: functional; settings: read-out: GI
SN12C = test: Cytotoxicity against human SN12C cells assessed as growth level at 10 uM after 48 hrs by SRB assay; format: functional
[15] = Cytotoxicity against human HOP62 cells assessed as growth level at 10 uM after 48 hrs by SRB assay; format: functional, HOP-62
[16] = Cytotoxicity against human PC3 cells assessed as growth level at 10 uM after 48 hrs by SRB assay; format: functional, PC-3
EKVX = test: Cytotoxicity against human EKVX cells assessed as growth level at 10 uM after 48 hrs by SRB assay; format: functional
ACHN [17] = test: Cytotoxicity against human ACHN cells assessed as growth level at 10 uM after 48 hrs by SRB assay; format: functional
NCI-H322M = test: Cytotoxicity against human NCI-H322M cells assessed as growth level at 10 uM after 48 hrs by SRB assay; format: functional
[18] = Cytotoxicity against human HCC2998 cells assessed as growth inhibition at 10 uM after 48 hrs by SRB assay; format: functional; settings: HCC 2998, 48 h, read-out: GI
[19] = Cytotoxicity against human OVCAR5 cells assessed as growth level at 10 uM after 48 hrs by SRB assay; format: functional, OVCAR-5
[20] = Cytotoxicity against human Hs578T cells assessed as growth inhibition at 10 uM after 48 hrs by SRB assay; format: functional; settings: Hs-578T, read-out: GI
[21] = Cytotoxicity against human IGROV1 cells assessed as growth level at 10 uM after 48 hrs by SRB assay; format: functional, IGROV-1
[22] = Cytotoxicity against human MOLT4 cells assessed as growth level at 10 uM after 48 hrs by SRB assay; format: functional, MOLT-4
[23] = Cytotoxicity against human OVCAR3 cells assessed as growth inhibition at 10 uM after 48 hrs by SRB assay; format: functional; settings: OVCAR-3, 48 h, read-out: GI
[24] = Cytotoxicity against human LOXIMVI cells assessed as growth level at 10 uM after 48 hrs by SRB assay; format: functional, LOX IMVI
MDA-MB-468 = test: Cytotoxicity against human MDA-MB-468 cells assessed as growth inhibition at 10 uM after 48 hrs by SRB assay; format: functional; settings: MDA-MB-468, 48 h, read-out: GI
[25] = Cytotoxicity against human HCT116 cells assessed as growth inhibition at 10 uM after 48 hrs by SRB assay; format: functional; settings: HCT-116, 48 h, read-out: GI
[26] = Cytotoxicity against human DU145 cells assessed as growth inhibition at 10 uM after 48 hrs by SRB assay; format: functional; settings: DU-145, 48 h, read-out: GI
ACHN [27] = test: Cytotoxicity against human ACHN cells assessed as growth inhibition at 10 uM after 48 hrs by SRB assay; format: functional; settings: read-out: GI
HT-29 = test: Cytotoxicity against human HT-29 cells assessed as growth inhibition at 10 uM after 48 hrs by SRB assay; format: functional; settings: HT-29, 48 h, read-out: GI
786-0 = test: Cytotoxicity against human 786-0 cells assessed as growth inhibition at 10 uM after 48 hrs by SRB assay; format: functional; settings: 786-0, 48 h, read-out: GI
Malme-3M [28] = test: Cytotoxicity against human MALME-3M cells assessed as growth inhibition at 10 uM after 48 hrs by SRB assay; format: functional; settings: read-out: GI
NCI-H226 = test: Cytotoxicity against human NCI-H226 cells assessed as growth inhibition at 10 uM after 48 hrs by SRB assay; format: functional; settings: NCI-H226, 48 h, read-out: GI
NCI-H460 = test: Cytotoxicity against human NCI-H460 cells assessed as growth inhibition at 10 uM after 48 hrs by SRB assay; format: functional; settings: NCI-H460, 48 h, read-out: GI
[29] = Cytotoxicity against human HL-60(TB) cells assessed as growth level at 10 uM after 48 hrs by SRB assay; format: functional
[30] = Cytotoxicity against human SNB75 cells assessed as growth level at 10 uM after 48 hrs by SRB assay; format: functional, SNB-75
[31] = Cytotoxicity against human SF539 cells assessed as growth inhibition at 10 uM after 48 hrs by SRB assay; format: functional; settings: SF-539, 48 h, read-out: GI
A498 [32] = test: Cytotoxicity against human A498 cells assessed as growth inhibition at 10 uM after 48 hrs by SRB assay; format: functional; settings: A498, 48 h, read-out: GI
[33] = Cytotoxicity against human SKOV3 cells assessed as growth inhibition at 10 uM after 48 hrs by SRB assay; format: functional; settings: SK-OV-3, 48 h, read-out: GI

For `C=C1CC[C@@H]2[C@](C)(COC(C)=O)[C@H](OC(C)=O)CC[C@@]2(C)[C@@H]1CC(NCCCCCCCC)C1=CCOC1=O` (mixture of isomers), the Activity (Malme-3M [1]) was 84.15%, the inhibition of growth at 10 µM (KM12) was 31.4% and the Activity [2] was 48.95%. It also gave an Activity [3] of 91.44%, an Activity (NCI-H23) of 70.76% and an inhibition of growth at 10 µM [4] of 8.03%. The inhibition of growth at 10 µM [5] was 43.9%, the Activity [6] was 81% and the inhibition of growth at 10 µM [7] was 47.7%. The Activity [8] was 68.67%, the inhibition of growth at 10 µM [9] was 52.3% and the inhibition of growth at 10 µM (NCI-H522) was 35.6%. The inhibition of growth at 10 µM [10] was 19%, the Activity (SR [11]) was 36.8% and the Activity [12] was 47.66%. For the same compound, the Activity (A498 [13]) was 64.34%, the inhibition of growth at 10 µM (SR [14]) was 63% and the Activity (SN12C) was 73.09%. The Activity [15] was 91.97%, the Activity [16] was 33.69% and the Activity (EKVX) was 75.77%. The Activity (ACHN [17]) was 85.98%, the Activity (NCI-H322M) was 98.01% and the inhibition of growth at 10 µM [18] was 8.56%. It also gave an Activity [19] of 93.23%, an inhibition of growth at 10 µM [20] of 16.9% and an Activity [21] of 70.18%. The Activity [22] was 36.47%, the inhibition of growth at 10 µM [23] was 51% and the Activity [24] was 53.89%. For the same compound, the inhibition of growth at 10 µM (MDA-MB-468) was 68%, the inhibition of growth at 10 µM [25] was 64.1% and the inhibition of growth at 10 µM [26] was 11.3%. For the same compound, the inhibition of growth at 10 µM (ACHN [27]) was 14%, the inhibition of growth at 10 µM (HT-29) was 29.5% and the inhibition of growth at 10 µM (786-0) was 20.1%. It also gave an inhibition of growth at 10 µM (Malme-3M [28]) of 15.8%, an inhibition of growth at 10 µM (NCI-H226) of 34.2% and an inhibition of growth at 10 µM (NCI-H460) of 47.3%. It also gave an Activity [29] of 58.93%, an Activity [30] of 74.62% and an inhibition of growth at 10 µM [31] of 10.8%. The inhibition of growth at 10 µM (A498 [32]) was 35.7% and the inhibition of growth at 10 µM [33] was 22.9%.

Compound `C=C1CC[C@@H]2[C@](C)(COC(C)=O)[C@H](OC(C)=O)CC[C@@]2(C)[C@@H]1CC(NCCCC)C1=CCOC1=O` (mixture of isomers) has an Activity (Malme-3M [1]) of 97.57%, an inhibition of growth at 10 µM (KM12) of 7.21% and an Activity [2] of 91.12%. It also gave an Activity [3] of 92.1%, an Activity (NCI-H23) of 89.71% and an inhibition of growth at 10 µM [4] of 6.04%. The inhibition of growth at 10 µM [5] was 16%, the Activity [6] was 94.28% and the inhibition of growth at 10 µM [7] was 14.3%. It also gave an Activity [8] of 90.95%, an inhibition of growth at 10 µM [9] of 27.6% and an inhibition of growth at 10 µM (NCI-H522) of 20.9%. The inhibition of growth at 10 µM [10] was 5.72%, the Activity (SR [11]) was 48.54% and the Activity [12] was 72.38%. The Activity (A498 [13]) was 75.44%, the inhibition of growth at 10 µM (SR [14]) was 51.5% and the Activity (SN12C) was 89.83%. The Activity [15] was 93.96%, the Activity [16] was 51.19% and the Activity (EKVX) was 71.43%. The Activity (ACHN [17]) was 99.42%, the Activity (NCI-H322M) was 96.22% and the inhibition of growth at 10 µM [18] was 7.9%. It also gave an Activity [19] of 95.04%, an inhibition of growth at 10 µM [20] of 2.32% and an Activity [21] of 80.01%. The Activity [22] was 55.54%, the inhibition of growth at 10 µM [23] was 8.88% and the Activity [24] was 90.39%. The inhibition of growth at 10 µM (MDA-MB-468) was 33.8%, the inhibition of growth at 10 µM [25] was 19.8% and the inhibition of growth at 10 µM [26] was 0.82%. The inhibition of growth at 10 µM (ACHN [27]) was 0.58%, the inhibition of growth at 10 µM (HT-29) was 17.4% and the inhibition of growth at 10 µM (786-0) was 3.93%. The inhibition of growth at 10 µM (Malme-3M [28]) was 2.43%, the inhibition of growth at 10 µM (NCI-H226) was 24.3% and the inhibition of growth at 10 µM (NCI-H460) was 8.38%. The Activity [29] was 93.82%, the Activity [30] was 77.87% and the inhibition of growth at 10 µM [31] was 9.46%. It also gave an inhibition of growth at 10 µM (A498 [32]) of 24.6% and an inhibition of growth at 10 µM [33] of 7.58%.
